Results published in patent publication US20230257366A1, “SULFUR-CONTAINING ISOINDOLINE DERIVATIVE, AND PREPARATION METHOD THEREFOR AND MEDICAL USE THEREOF” (JIANGSU HENGRUI PHARMACEUTICALS CO., LTD., priority 2020, published 2023).

How the values were obtained:
[1] = test system: NCI-H929 xenograft tumor; assay: Pharmacodynamic test: NCI-H929 xenograft tumor in CB-17 SCID mice; assay type: in vivo
Experimental: This experiment was performed to evaluate the inhibition effect of the compound of Example 6 and the control example CC-92480 on the growth of human multiple myeloma cell NCI-H929 xenograft tumor in CB-17 SCID mice.
Compound of Example 6; control example CC-92480 (see compound 2 of WO2019014100A1, synthesized according to the method disclosed therein)
Solutions of the compound of Example 6 and the control example CC-92480 were prepared with 5% DMSO+20% PEG400+70% (10% TPGS)+5% (1% HPMC K100LV).
Thirty CB-17 SCID female mice, purchased from Beijing Vital River Laboratory Animal Technology Co., Ltd. (certificate No. 20170011006049, SCXK (Shanghai) 2017-0011), weighing about 19 g at the time of purchase, were bred at 5 mice/cage (in 12/12 hour light/dark cycle, at a constant temperature of 23±1° C. and humidity of 50%-60%) and had free access to food and water.
After adaptive feeding, the CB-17 SCID mice were grouped as follows:
NCI-H929 cells in a logarithmic growth phase were inoculated subcutaneously into the right flank of 30 female CB-17 SCID mice at 5×10^6 cells/mouse/100 μL (containing 50 μL of Matrigel). After 10 days, when the tumor volume of the tumor-bearing mice reached about 200 mm^3, the mice were randomly divided into 3 groups according to the tumor volume and body weight: vehicle control group, CC-92480-1 mpk, compound of Example 6-1 mpk, with 7 mice in each group. The day of grouping was set as Day 0 (D0), and intragastric administration was performed once a day for 11 days (Table 2). For the tumor-bearing mice, the tumor volume was measured with a vernier caliper and the body weight was measured with a balance twice a week, and the data were recorded.
All data were plotted and statistically analyzed using Excel and GraphPad Prism 5 software.
The tumor volume (V) was calculated as follows: V=½×a×b^2, where a and b represent length and width, respectively.
The relative tumor proliferation rate T/C (%)=(T−T0)/(C−C0)×100(%), where T and C are the tumor volume of animals at the end of the experiment in the treatment group and control group, respectively; T0 and C0 are the tumor volume of animals at the beginning of the experiment in the treatment group and control group, respectively.
Tumor growth inhibition TGI (%)=1−T/C (%), and when TGI (%) exceeds 100%, no specific value will be shown, and it is expressed only by >100%.
Tumor regression (%)=[(T0−T)/T0]×100(%).

[2] = Plasma stability in monkey plasma (LC-MS/MS); assay type: in vitro ADME; conditions: cryopreserved monkey plasma; monkey plasma, 37° C., 1 μM; read-out: T1/2 (min)/monkey
Experimental: The stability of the compound of Example 6 and the control example CC-92480 after incubation in cryopreserved monkey plasma at 37° C. for 0 min, 15 min, 30 min, 60 min, 120 min, 180 min and 240 min was determined quantitatively by LC-MS/MS.
Compound of Example 6 and control example CC-92480.
Monkey plasma was purchased from Shanghai Medicilon Inc.
A certain amount of the compound of Example 6 was weighed and prepared with DMSO to obtain a 30 mM stock solution. A certain volume of the stock solution was diluted into a solution I at a concentration of 1600 μM with DMSO; and a certain volume of the solution I at 1600 μM was diluted with 50% methanol to obtain a working solution II at a concentration of 16 μM. A 30 mM stock solution, a 1600 μM solution I′, and a 16 μM working solution II′ of CC-92480 were prepared as described above.
5 μL of the working solutions at 16 μM of the compound of Example 6 and the control example CC-92480 were each added to 75 μL of plasma to make the final concentration of the compounds of 1 μM. The samples were incubated under a 37° C. water bath for 0 min, 15 min, 30 min, 60 min, 90 min, 120 min, and 180 min. […] The supernatant was analyzed by LC-MS with a sample injection volume of 2 μL.

In the case of `N#Cc1ccc(N2CCC(Sc3ccc(COc4cccc5c4CN([C@H]4CCC(=O)NC4=O)C5=O)cn3)CC2)c(F)c1` [Compound 6, (S)-4-(4-((5-(((2-(2,6-dioxopiperidin-3-yl)-1-oxoisoindolin-4-yl)oxy)methyl)pyridin-2-yl)thio)piperidin-1-yl)-3-fluorobenzonitrile], the “tumor inhibition rate (TGI)” value ([1]; 1 mg/kg qd, 11 days after administration) is reported as over 100%, the “Mean tumor volume D0” value ([1]; 1 mg/kg qd, baseline at day of grouping (D0), n=7) is reported as 155.4 mm^3 and the “Number of remaining animals/group” value ([1]; 1 mg/kg qd/11d po) is reported as 7/7. The “% tumor regression D11” value ([1]; 1 mg/kg qd/11d po (i.g.), D11) was 88%, the “Mean tumor volume D11” value ([1]; 1 mg/kg qd/11d po (i.g.), D11, n=7) was 18.6 mm^3 and the half-life at 1 µM [2] was 806 min.
